PubChem BioAssay (NCI)
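GI50 = concentration required for 50% inhibition of growth. Definition used: TGI = concentration required for complete inhibition of growth.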

Key:
Experiment in all cases: inhibition of tumour cell growth, NCI panel, 384-well format
RPMI-8226 leukemia = tested on: RPMI-8226 leukemia
OVCAR-4 ovarian = tested on: OVCAR-4 ovarian
OVCAR-3 ovarian = tested on: OVCAR-3 ovarian
NCI-H522 lung = tested on: NCI-H522 lung
HT29 colon = tested on: HT29 colon
CAKI-1 renal = tested on: CAKI-1 renal
MDA-MB-231 breast = tested on: MDA-MB-231 breast
HCT-15 colon = tested on: HCT-15 colon
UACC-257 melanoma = tested on: UACC-257 melanoma
PC-3 prostate = tested on: PC-3 prostate
SF-539 CNS = tested on: SF-539 CNS
786-0 renal = tested on: 786-0 renal
MDA-MB-468 breast = tested on: MDA-MB-468 breast
NCI-H460 NSCLC = tested on: NCI-H460 NSCLC
T-47D breast = tested on: T-47D breast
MALME-3M melanoma = tested on: MALME-3M melanoma
SR leukemia = tested on: SR leukemia
SK-MEL-28 melanoma = tested on: SK-MEL-28 melanoma
SK-OV-3 ovarian = tested on: SK-OV-3 ovarian
MDA-MB-435 melanoma = tested on: MDA-MB-435 melanoma
SK-MEL-2 melanoma = tested on: SK-MEL-2 melanoma
MOLT-4 leukemia = tested on: MOLT-4 leukemia
NCI-H23 lung = tested on: NCI-H23 lung
COLO 205 colon = tested on: COLO 205 colon
UO-31 renal = tested on: UO-31 renal
SN12C renal = tested on: SN12C renal
SNB-19 CNS = tested on: SNB-19 CNS
ACHN renal = tested on: ACHN renal
U251 glioblastoma = tested on: U251 glioblastoma
KM12 colon = tested on: KM12 colon
K-562 leukemia = tested on: K-562 leukemia
HOP-92 NSCLC = tested on: HOP-92 NSCLC
EKVX NSCLC = tested on: EKVX NSCLC
HCC-2998 colon = tested on: HCC-2998 colon
NCI-H226 lung = tested on: NCI-H226 lung
A549 NSCLC = tested on: A549 NSCLC
SF-268 CNS = tested on: SF-268 CNS
M14 melanoma = tested on: M14 melanoma
UACC-62 melanoma = tested on: UACC-62 melanoma
SF-295 CNS = tested on: SF-295 CNS
LOX IMVI melanoma = tested on: LOX IMVI melanoma
SW-620 colon = tested on: SW-620 colon
HOP-62 NSCLC = tested on: HOP-62 NSCLC
RXF 393 renal = tested on: RXF 393 renal
CCRF-CEM leukemia = tested on: CCRF-CEM leukemia
OVCAR-8 ovarian = tested on: OVCAR-8 ovarian
SK-MEL-5 melanoma = tested on: SK-MEL-5 melanoma

Cn1c(Nc2ccc(C(F)(F)F)cc2)nc2cc(Oc3ccnc(-c4ncc(C(F)(F)F)[nH]4)c3)ccc21
GI50 (RPMI-8226 leukemia): 0.232 µM | TGI (RPMI-8226 leukemia): 2.09 µM | GI50 (OVCAR-4 ovarian): 0.454 µM | TGI (OVCAR-4 ovarian): 11.7 µM | GI50 (OVCAR-3 ovarian): 0.158 µM | TGI (OVCAR-3 ovarian): 2.46 µM | GI50 (NCI-H522 lung): 0.0556 µM | TGI (NCI-H522 lung): 11 µM | GI50 (HT29 colon): 0.396 µM | TGI (HT29 colon): 13.7 µM | GI50 (CAKI-1 renal): 0.0157 µM | TGI (CAKI-1 renal): 12.4 µM | GI50 (MDA-MB-231 breast): 0.0367 µM | TGI (MDA-MB-231 breast): 1.8 µM | GI50 (HCT-15 colon): 0.0537 µM | TGI (HCT-15 colon): 10.3 µM | GI50 (UACC-257 melanoma): 0.137 µM | TGI (UACC-257 melanoma): 1.51 µM | GI50 (PC-3 prostate): 0.833 µM | TGI (PC-3 prostate): 12.3 µM | GI50 (SF-539 CNS): 0.346 µM | TGI (SF-539 CNS): 7.74 µM | GI50 ([…]-0 renal): 0.615 µM | TGI (786-0 renal): 6.25 µM | GI50 (MDA-MB-468 breast): 0.0741 µM | TGI (MDA-MB-468 breast): 0.825 µM | GI50 (NCI-H460 NSCLC): 0.237 µM | TGI (NCI-H460 NSCLC): 10.3 µM | GI50 (T-47D breast): 0.274 µM | TGI (T-47D breast): 9.06 µM | GI50 (MALME-3M melanoma): 0.0144 µM | TGI (MALME-3M melanoma): 0.0443 µM | GI50 (SR leukemia): 0.27 µM | TGI (SR leukemia): 2.11 µM | GI50 (SK-MEL-28 melanoma): 0.046 µM | TGI (SK-MEL-28 melanoma): 0.408 µM | GI50 (SK-OV-3 ovarian): 0.0127 µM | TGI (SK-OV-3 ovarian): 12.5 µM | GI50 (MDA-MB-435 melanoma): 0.0476 µM | TGI (MDA-MB-435 melanoma): 5.88 µM | GI50 (SK-MEL-2 melanoma): 0.0238 µM | TGI (SK-MEL-2 melanoma): 0.101 µM | GI50 (MOLT-4 leukemia): 0.0553 µM | TGI (MOLT-4 leukemia): 0.197 µM | GI50 (NCI-H23 lung): 0.179 µM | TGI (NCI-H23 lung): 2.33 µM | GI50 (COLO 205 colon): 0.122 µM | TGI (COLO 205 colon): 1.42 µM | GI50 (UO-31 renal): 0.332 µM | TGI (UO-31 renal): 12.6 µM | GI50 (SN12C renal): 0.0464 µM | TGI (SN12C renal): 11.8 µM | GI50 (SNB-19 CNS): 0.359 µM | TGI (SNB-19 CNS): 19.8 µM | GI50 (ACHN renal): 0.0205 µM | TGI (ACHN renal): 11.3 µM | GI50 (U251 glioblastoma): 0.0979 µM | TGI (U251 glioblastoma): 12.7 µM | GI50 (KM12 colon): 0.734 µM | TGI (KM12 colon): 12.5 µM | GI50 (K-562 leukemia): 0.63 µM | TGI (K-562 leukemia): 2.13 µM | GI50 (HOP-92 NSCLC): 0.584 µM | TGI (HOP-92 NSCLC): 6 µM | GI50 (EKVX NSCLC): 0.983 µM | TGI (EKVX NSCLC): 4.91 µM | GI50 (HCC-2998 colon): 0.0883 µM | TGI (HCC-2998 colon): 5.62 µM | GI50 (NCI-H226 lung): 1.5 µM | TGI (NCI-H226 lung): 19.2 µM | GI50 (A549 NSCLC): 0.254 µM | TGI (A549 NSCLC): 12.4 µM | GI50 (SF-268 CNS): 0.387 µM | TGI (SF-268 CNS): 13.3 µM | GI50 (M14 melanoma): 0.0184 µM | TGI (M14 melanoma): 0.332 µM | GI50 (UACC-62 melanoma): 0.027 µM | TGI (UACC-62 melanoma): 0.462 µM | GI50 (SF-295 CNS): 0.249 µM | TGI (SF-295 CNS): 5.66 µM | GI50 (LOX IMVI melanoma): 0.0547 µM | TGI (LOX IMVI melanoma): 1.54 µM | GI50 (SW-620 colon): 0.873 µM | TGI (SW-620 colon): 12.5 µM | GI50 (HOP-62 NSCLC): 0.608 µM | TGI (HOP-62 NSCLC): 11.4 µM | GI50 (RXF 393 renal): 0.0159 µM | TGI (RXF 393 renal): 0.348 µM | GI50 (CCRF-CEM leukemia): 0.231 µM | TGI (CCRF-CEM leukemia): 1.17 µM | GI50 (OVCAR-8 ovarian): 0.493 µM | TGI (OVCAR-8 ovarian): 10.6 µM | GI50 (SK-MEL-5 melanoma): 0.0704 µM | TGI (SK-MEL-5 melanoma): 0.617 µM

CN1CC[C@@H](c2c(O)cc(O)c3c(=O)cc(-c4ccc(C(F)(F)F)cc4Cl)oc23)[C@@H]1CO
GI50 (RPMI-8226 leukemia): 7.71 µM | TGI (RPMI-8226 leukemia): 20.3 µM | GI50 (OVCAR-4 ovarian): 15.4 µM | TGI (OVCAR-4 ovarian): 29.6 µM | GI50 (OVCAR-3 ovarian): 12.7 µM | TGI (OVCAR-3 ovarian): 25.9 µM | GI50 (NCI-H522 lung): 14 µM | TGI (NCI-H522 lung): 27.1 µM | GI50 (HT29 colon): 17.6 µM | TGI (HT29 colon): 31.8 µM | GI50 (CAKI-1 renal): 4.61 µM | TGI (CAKI-1 renal): 13.1 µM | GI50 (MDA-MB-231 breast): 15.9 µM | TGI (MDA-MB-231 breast): 29.9 µM | GI50 (HCT-15 colon): 16.1 µM | TGI (HCT-15 colon): 30 µM | GI50 (UACC-257 melanoma): 12.4 µM | TGI (UACC-257 melanoma): 24.9 µM | GI50 (PC-3 prostate): 14.6 µM | TGI (PC-3 prostate): 28.4 µM | GI50 (SF-539 CNS): 16.1 µM | TGI (SF-539 CNS): 29.8 µM | GI50 ([…]-0 renal): 13.6 µM | TGI (786-0 renal): 26.7 µM | GI50 (MDA-MB-468 breast): 11.8 µM | TGI (MDA-MB-468 breast): 24.1 µM | GI50 (NCI-H460 NSCLC): 14.5 µM | TGI (NCI-H460 NSCLC): 28 µM | GI50 (T-47D breast): 13.8 µM | TGI (T-47D breast): 26.8 µM | GI50 (MALME-3M melanoma): 12.2 µM | TGI (MALME-3M melanoma): 24.6 µM | GI50 (SR leukemia): 1.88 µM | TGI (SR leukemia): 5.32 µM | GI50 (SK-MEL-28 melanoma): 13.5 µM | TGI (SK-MEL-28 melanoma): 26.4 µM | GI50 (SK-OV-3 ovarian): 16.3 µM | TGI (SK-OV-3 ovarian): 31.1 µM | GI50 (MDA-MB-435 melanoma): 20.5 µM | TGI (MDA-MB-435 melanoma): 34.9 µM | GI50 (SK-MEL-2 melanoma): 14.5 µM | TGI (SK-MEL-2 melanoma): 27.7 µM | GI50 (MOLT-4 leukemia): 12.7 µM | TGI (MOLT-4 leukemia): 25.4 µM | GI50 (NCI-H23 lung): 14.9 µM | TGI (NCI-H23 lung): 28.2 µM | GI50 (COLO 205 colon): 18.4 µM | TGI (COLO 205 colon): 32.6 µM | GI50 (UO-31 renal): 10.8 µM | TGI (UO-31 renal): 23.2 µM | GI50 (SN12C renal): 13.7 µM | TGI (SN12C renal): 26.7 µM | GI50 (SNB-19 CNS): 18.7 µM | TGI (SNB-19 CNS): 33.9 µM | GI50 (ACHN renal): 12.6 µM | TGI (ACHN renal): 25.7 µM | GI50 (U251 glioblastoma): 15.5 µM | TGI (U251 glioblastoma): 29 µM | GI50 (KM12 colon): 13.1 µM | TGI (KM12 colon): 26 µM | GI50 (K-562 leukemia): 13.9 µM | TGI (K-562 leukemia): 27.3 µM | GI50 (HOP-92 NSCLC): 12.7 µM | TGI (HOP-92 NSCLC): 25.3 µM | GI50 (EKVX NSCLC): 13.8 µM | TGI (EKVX NSCLC): 27.1 µM | GI50 (HCC-2998 colon): 13.2 µM | TGI (HCC-2998 colon): 26.2 µM | GI50 (NCI-H226 lung): 12.1 µM | TGI (NCI-H226 lung): 26.8 µM | GI50 (A549 NSCLC): 16.7 µM | TGI (A549 NSCLC): 31.7 µM | GI50 (SF-268 CNS): 15.1 µM | TGI (SF-268 CNS): 28.5 µM | GI50 (M14 melanoma): 17 µM | TGI (M14 melanoma): 30.8 µM | GI50 (UACC-62 melanoma): 9.36 µM | TGI (UACC-62 melanoma): 21.7 µM | GI50 (SF-295 CNS): 16.7 µM | TGI (SF-295 CNS): 30.8 µM | GI50 (LOX IMVI melanoma): 14 µM | TGI (LOX IMVI melanoma): 27.1 µM | GI50 (SW-620 colon): 17.5 µM | TGI (SW-620 colon): 31.6 µM | GI50 (HOP-62 NSCLC): 14.4 µM | TGI (HOP-62 NSCLC): 27.7 µM | GI50 (RXF 393 renal): 12.3 µM | TGI (RXF 393 renal): 24.8 µM | GI50 (CCRF-CEM leukemia): 13.8 µM | TGI (CCRF-CEM leukemia): 26.8 µM | GI50 (OVCAR-8 ovarian): 14.2 µM | TGI (OVCAR-8 ovarian): 27.4 µM | GI50 (SK-MEL-5 melanoma): 16.7 µM | TGI (SK-MEL-5 melanoma): 30.4 µM
